According to US12258327B2, “5-membered heteroaryl-containing aminopyridine compounds as EGFR inhibitors” (YUHAN CORPORATION, priority 2021, dated 2025):
Read-outs that look alike come from different tables or passages of the source.

Columns and labels:
EGFR del19/T790M/C797S = EGFR del19/T790M/C797S (Homo sapiens, UniProt P00533, C797S/DEL746-750/T790M); assay: Biochemical EGFR kinase assay (Lance Ultra TR-FRET), triple mutant del19/T790M/C797S
Summary of the method: (§1)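 In this biochemical assay, phosphorylation after a one-hour room-temperature reaction was detected with europium-labelled anti-phosphopeptide antibody at 2 nM final concentration.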

EGFR L858R/T790M/C797S = EGFR L858R/T790M/C797S (Homo sapiens, UniProt P00533, C797S/L858R/T790M); assay: Biochemical EGFR kinase assay (Lance Ultra TR-FRET), triple mutant L858R/T790M/C797S
Summary of the method: as §1

EGFR del19/C797S = EGFR del19/C797S (Homo sapiens, UniProt P00533, C797S/DEL746-750); assay: Biochemical EGFR kinase assay (Lance Ultra TR-FRET), double mutant del19/C797S
Chain of EGFR del19/C797S (P00533 with tags, fused parts or gaps DEL746-750/C797S): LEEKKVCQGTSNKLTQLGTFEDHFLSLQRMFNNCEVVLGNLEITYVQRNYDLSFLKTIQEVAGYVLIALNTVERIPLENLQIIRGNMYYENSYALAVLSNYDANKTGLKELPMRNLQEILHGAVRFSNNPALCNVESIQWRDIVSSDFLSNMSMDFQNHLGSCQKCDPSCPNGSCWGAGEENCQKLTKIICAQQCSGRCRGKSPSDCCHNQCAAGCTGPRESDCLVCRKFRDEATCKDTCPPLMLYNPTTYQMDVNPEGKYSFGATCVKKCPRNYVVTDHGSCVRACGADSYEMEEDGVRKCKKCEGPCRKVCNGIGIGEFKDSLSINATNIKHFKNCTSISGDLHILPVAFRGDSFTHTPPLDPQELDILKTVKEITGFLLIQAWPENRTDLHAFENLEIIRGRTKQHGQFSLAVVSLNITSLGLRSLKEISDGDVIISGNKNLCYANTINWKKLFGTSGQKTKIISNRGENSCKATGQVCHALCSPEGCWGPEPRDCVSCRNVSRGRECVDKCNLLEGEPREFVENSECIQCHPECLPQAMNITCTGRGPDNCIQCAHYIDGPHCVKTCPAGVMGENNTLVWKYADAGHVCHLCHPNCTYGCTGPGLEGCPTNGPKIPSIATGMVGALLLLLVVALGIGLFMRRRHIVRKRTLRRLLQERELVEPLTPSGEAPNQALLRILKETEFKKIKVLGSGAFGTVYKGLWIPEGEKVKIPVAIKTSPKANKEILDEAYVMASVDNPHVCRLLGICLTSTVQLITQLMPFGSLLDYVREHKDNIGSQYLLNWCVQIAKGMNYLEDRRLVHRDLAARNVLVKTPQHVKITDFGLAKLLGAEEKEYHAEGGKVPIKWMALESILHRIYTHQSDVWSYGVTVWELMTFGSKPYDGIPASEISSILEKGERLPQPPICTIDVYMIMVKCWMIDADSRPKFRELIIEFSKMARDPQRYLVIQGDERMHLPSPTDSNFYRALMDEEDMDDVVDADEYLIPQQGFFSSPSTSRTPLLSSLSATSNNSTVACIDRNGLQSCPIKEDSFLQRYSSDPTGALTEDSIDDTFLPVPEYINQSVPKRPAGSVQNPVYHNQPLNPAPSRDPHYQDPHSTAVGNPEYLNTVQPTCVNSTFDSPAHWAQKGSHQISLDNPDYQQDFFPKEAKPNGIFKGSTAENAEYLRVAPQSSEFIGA
Summary of the method: as §1

EGFR L858R/C797S = EGFR L858R/C797S (Homo sapiens, UniProt P00533, C797S/L858R); assay: Biochemical EGFR kinase assay (Lance Ultra TR-FRET), double mutant L858R/C797S
Chain of EGFR L858R/C797S (P00533 25-1210 C797S/L858R): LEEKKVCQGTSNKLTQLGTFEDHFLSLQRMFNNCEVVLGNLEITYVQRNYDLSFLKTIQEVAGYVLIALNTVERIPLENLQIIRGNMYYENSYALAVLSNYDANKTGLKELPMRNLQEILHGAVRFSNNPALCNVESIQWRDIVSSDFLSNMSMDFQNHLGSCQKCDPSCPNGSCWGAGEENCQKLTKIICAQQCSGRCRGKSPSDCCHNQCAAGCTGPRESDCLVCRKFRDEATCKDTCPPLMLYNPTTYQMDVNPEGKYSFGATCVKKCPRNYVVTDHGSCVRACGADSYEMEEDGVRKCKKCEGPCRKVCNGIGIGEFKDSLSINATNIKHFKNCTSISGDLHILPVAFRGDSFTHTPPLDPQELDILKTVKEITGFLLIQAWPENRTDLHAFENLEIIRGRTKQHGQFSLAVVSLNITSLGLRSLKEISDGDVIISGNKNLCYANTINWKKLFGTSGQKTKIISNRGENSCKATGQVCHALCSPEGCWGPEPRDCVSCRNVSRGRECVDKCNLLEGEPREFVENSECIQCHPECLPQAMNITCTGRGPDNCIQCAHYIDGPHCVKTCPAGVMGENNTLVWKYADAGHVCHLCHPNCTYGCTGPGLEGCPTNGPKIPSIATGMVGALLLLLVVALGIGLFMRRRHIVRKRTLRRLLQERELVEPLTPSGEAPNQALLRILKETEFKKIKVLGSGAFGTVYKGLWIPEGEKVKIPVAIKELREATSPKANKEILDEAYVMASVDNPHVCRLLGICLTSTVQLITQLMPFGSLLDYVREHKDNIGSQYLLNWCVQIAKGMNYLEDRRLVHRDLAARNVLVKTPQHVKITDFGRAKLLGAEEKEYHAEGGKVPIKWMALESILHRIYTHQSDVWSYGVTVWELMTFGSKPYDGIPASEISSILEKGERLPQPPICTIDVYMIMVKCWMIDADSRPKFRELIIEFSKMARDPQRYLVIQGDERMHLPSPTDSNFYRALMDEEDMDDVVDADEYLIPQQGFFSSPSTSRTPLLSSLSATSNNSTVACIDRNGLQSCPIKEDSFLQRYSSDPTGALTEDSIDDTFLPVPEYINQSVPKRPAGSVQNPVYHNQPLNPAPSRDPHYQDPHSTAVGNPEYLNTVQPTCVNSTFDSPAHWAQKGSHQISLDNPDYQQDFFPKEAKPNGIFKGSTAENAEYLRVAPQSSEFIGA
Summary of the method: as §1

EGFR wildtype (WT) = EGFR wildtype (WT) (Homo sapiens, UniProt P00533); assay: Biochemical EGFR kinase assay (Lance Ultra TR-FRET), wildtype
Chain of EGFR wildtype (WT) (P00533 25-1210): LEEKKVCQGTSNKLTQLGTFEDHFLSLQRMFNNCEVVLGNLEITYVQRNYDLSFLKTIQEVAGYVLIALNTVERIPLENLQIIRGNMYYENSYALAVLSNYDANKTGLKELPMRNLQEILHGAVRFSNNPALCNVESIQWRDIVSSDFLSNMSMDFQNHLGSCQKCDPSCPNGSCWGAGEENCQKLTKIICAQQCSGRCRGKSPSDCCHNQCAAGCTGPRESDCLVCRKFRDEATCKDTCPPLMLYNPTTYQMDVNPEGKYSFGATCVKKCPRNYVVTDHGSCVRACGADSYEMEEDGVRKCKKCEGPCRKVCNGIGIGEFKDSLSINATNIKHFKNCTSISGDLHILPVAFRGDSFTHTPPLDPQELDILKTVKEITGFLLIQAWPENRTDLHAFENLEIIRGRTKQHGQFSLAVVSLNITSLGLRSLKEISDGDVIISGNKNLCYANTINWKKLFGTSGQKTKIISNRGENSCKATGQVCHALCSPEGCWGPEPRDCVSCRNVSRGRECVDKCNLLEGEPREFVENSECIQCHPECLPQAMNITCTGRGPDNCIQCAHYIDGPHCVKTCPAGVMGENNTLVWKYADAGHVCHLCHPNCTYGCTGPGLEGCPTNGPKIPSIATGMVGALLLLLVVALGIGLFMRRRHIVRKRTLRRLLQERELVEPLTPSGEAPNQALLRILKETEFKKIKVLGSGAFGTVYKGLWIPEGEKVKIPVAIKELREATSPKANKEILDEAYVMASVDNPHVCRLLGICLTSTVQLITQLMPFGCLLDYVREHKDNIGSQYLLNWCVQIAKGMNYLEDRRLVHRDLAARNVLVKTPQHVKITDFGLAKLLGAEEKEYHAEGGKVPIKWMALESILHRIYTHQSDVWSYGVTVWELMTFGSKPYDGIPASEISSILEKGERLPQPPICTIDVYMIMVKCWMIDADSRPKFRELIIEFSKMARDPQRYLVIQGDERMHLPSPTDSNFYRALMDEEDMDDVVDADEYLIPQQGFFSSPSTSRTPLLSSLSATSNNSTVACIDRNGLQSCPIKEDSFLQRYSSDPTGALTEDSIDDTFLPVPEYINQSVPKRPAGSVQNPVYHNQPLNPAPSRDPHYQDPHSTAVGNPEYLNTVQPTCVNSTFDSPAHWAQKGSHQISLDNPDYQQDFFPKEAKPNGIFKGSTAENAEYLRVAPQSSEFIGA
Summary of the method: as §1

[1] = Km ATP, read-out: IC50 del19/T790M/C797S (nM) Km ATP
[2] = Km ATP, read-out: IC50 L858R/T790M/C797S (nM) Km ATP
[3] = Km ATP, read-out: IC50 del19/C797S (nM) Km ATP
[4] = Km ATP, read-out: IC50 L858R/C797S (nM) Km ATP
[5] = Km ATP, read-out: IC50 WT (nM) Km ATP
[6] = IC50 del19/T790M/C797S (nM) 100 μM ATP, 100 μM ATP
[7] = IC50 L858R/T790M/C797S (nM) 100 μM ATP, 100 μM ATP
[8] = IC50 del19/C797S (nM) 100 μM ATP, 100 μM ATP
[9] = IC50 L858R/C797S (nM) 100 μM ATP, 100 μM ATP
[10] = IC50 WT (nM) 100 μM ATP, 100 μM ATP

Chain of EGFR del19/T790M/C797S (P00533 with tags, fused parts or gaps DEL746-750/T790M/C797S): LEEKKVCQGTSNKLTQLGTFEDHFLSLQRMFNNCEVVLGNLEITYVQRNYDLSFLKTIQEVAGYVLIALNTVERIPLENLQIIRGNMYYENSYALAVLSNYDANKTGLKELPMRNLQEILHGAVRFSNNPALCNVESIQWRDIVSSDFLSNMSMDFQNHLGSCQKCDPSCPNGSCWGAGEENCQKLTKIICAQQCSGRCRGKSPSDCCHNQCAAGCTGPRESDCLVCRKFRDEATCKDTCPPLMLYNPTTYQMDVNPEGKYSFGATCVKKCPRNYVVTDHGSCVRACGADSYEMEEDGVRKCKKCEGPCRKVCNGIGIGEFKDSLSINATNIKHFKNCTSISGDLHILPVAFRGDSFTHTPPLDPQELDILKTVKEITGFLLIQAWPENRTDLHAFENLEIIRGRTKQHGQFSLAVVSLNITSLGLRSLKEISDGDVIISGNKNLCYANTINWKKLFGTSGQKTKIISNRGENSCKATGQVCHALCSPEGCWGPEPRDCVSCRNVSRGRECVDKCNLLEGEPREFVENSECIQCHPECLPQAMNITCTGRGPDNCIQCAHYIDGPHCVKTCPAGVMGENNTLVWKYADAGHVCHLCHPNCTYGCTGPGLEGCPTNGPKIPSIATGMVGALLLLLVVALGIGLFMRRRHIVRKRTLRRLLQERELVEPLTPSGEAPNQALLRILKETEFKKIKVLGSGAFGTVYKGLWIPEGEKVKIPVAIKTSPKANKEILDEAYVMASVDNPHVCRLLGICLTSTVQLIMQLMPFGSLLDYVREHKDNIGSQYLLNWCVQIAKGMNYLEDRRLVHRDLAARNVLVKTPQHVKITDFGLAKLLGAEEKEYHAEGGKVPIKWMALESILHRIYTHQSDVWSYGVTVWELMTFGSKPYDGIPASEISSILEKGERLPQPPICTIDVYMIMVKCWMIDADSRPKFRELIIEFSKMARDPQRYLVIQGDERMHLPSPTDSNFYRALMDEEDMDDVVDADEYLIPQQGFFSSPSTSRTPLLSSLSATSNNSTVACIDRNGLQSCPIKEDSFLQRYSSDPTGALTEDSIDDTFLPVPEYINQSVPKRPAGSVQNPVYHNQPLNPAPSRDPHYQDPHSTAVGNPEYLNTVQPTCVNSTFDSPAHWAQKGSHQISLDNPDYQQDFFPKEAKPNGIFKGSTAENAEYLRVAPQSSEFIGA

| SMILES | IC50 (EGFR del19/T790M/C797S; [1]) [nM] | IC50 (EGFR L858R/T790M/C797S; [2]) [nM] | IC50 (EGFR del19/C797S; [3]) [nM] | IC50 (EGFR L858R/C797S; [4]) [nM] | IC50 (EGFR wildtype (WT); [5]) [nM] | IC50 (EGFR del19/T790M/C797S; [6]) [nM] | IC50 (EGFR L858R/T790M/C797S; [7]) [nM] | IC50 (EGFR del19/C797S; [8]) [nM] | IC50 (EGFR L858R/C797S; [9]) [nM] | IC50 (EGFR wildtype (WT); [10]) [nM] |
| --- | --- | --- | --- | --- | --- | --- | --- | --- | --- | --- |
| C[C@]1(O)CC[C@@H](Nc2cc(Nc3ccnc(-c4cnn(CC(F)(F)C(F)F)c4)n3)ncc2-c2ccn(C(F)F)n2)CC1 [Example 322, (1s,4s)-4-((5-(1-(Difluoromethyl)-1H-pyrazol-3-yl)-2-((2-(1-(2,2,3,3-tetrafluoropropyl)-1H-pyrazol-4-yl)pyrimidin-4-yl)amino)pyridin-4-yl)amino)-1-methylcyclohexan-1-ol] | 1.9 | 0.6 | 176 | 15.5 | 1520 | – | – | – | – | – |
| C[C@]1(O)CC[C@@H](Nc2cc(Nc3ccnc(-c4cnn(C5CC5)c4)n3)ncc2-c2ccn(C(F)F)n2)CC1 [Example 140, (1s,4s)-4-((2-((2-(1-Cyclopropyl-1H-pyrazol-4-yl)pyrimidin-4-yl)amino)-5-(1-(difluoromethyl)-1H-pyrazol-3-yl)pyridin-4-yl)amino)-1-methylcyclohexan-1-ol] | 1 | 1.1 | 27.3 | 7.1 | 137 | 3.7 | 3.4 | 37.2 | 91.5 | 8960 |
| O=S(=O)(C1CC1)n1cc(-c2nccc(Nc3cc(NC[C@H]4CC[C@@H](O)CC4)c(-c4ccn(C(F)F)n4)cn3)n2)cn1 [Example 30, (1s,4s)-4-(((2-((2-(1-(Cyclopropylsulfonyl)-1H-pyrazol-4-yl)pyrimidin-4-yl)amino)-5-(1-(difluoromethyl)-1H-pyrazol-3-yl)pyridin-4-yl)amino)methyl)cyclohexan-1-ol] | 0.6 | 0.3 | 0.5 | – | 15.4 | 2.4 | 2.8 | 2.2 | 41.3 | > 10000 |
| O=S(=O)(C1CC1)n1cc(-c2nccc(Nc3cc(N[C@H]4CC[C@@H](CC(F)F)CC4)c(-c4ccn(C(F)F)n4)cn3)n2)cn1 [Example 185, N^2-(2-(1-(Cyclopropylsulfonyl)-1H-pyrazol-4-yl)pyrimidin-4-yl)-N^4-((1s,4s)-4-(2,2-difluoroethyl)cyclohexyl)-5-(1-(difluoromethyl)-1H-pyrazol-3-yl)pyridine-2,4-diamine] | 11 | 3.8 | 51.5 | 59.5 | 87.1 | – | – | – | – | – |
| CN(C)C(=O)C[C@H]1CC[C@@H](Nc2cc(Nc3ccnc(-c4cnn(S(=O)(=O)C5CC5)c4)n3)ncc2-c2ccn(C)n2)CC1 [Example 236, 2-((1s,4s)-4-((2-((2-(1-(Cyclopropylsulfonyl)-1H-pyrazol-4-yl)pyrimidin-4-yl)amino)-5-(1-methyl-1H-pyrazol-3-yl)pyridin-4-yl)amino)cyclohexyl)-N,N-dimethylacetamide] | 0.3 | 0.2 | 0.2 | 0.1 | 0.5 | 0.3 | 0.3 | 0.3 | 2 | 565 |
| CN(C)C[C@]1(O)CC[C@@H](Nc2cc(Nc3ccnc(-c4cnn(S(=O)(=O)C5CC5)c4)n3)ncc2-c2ccn(C)n2)CC1 [Example 230, (1s,4s)-4-((2-((2-(1-(Cyclopropylsulfonyl)-1H-pyrazol-4-yl)pyrimidin-4-yl)amino)-5-(1-methyl-1H-pyrazol-3-yl)pyridin-4-yl)amino)-1-((dimethylamino)methyl)cyclohexan-1-ol] | 0.2 | 0.2 | 4.8 | 3.3 | 9.4 | 0.5 | 0.5 | 6 | 33.8 | 4670 |
| C[C@]1(O)CC[C@@H](Nc2cc(Nc3ccnc(-c4cnn(S(=O)(=O)C5CC5)c4)n3)ncc2-c2cn3c(n2)CCC3)CC1 [Example 274, (1s,4s)-4-((2-((2-(1-(Cyclopropylsulfonyl)-1H-pyrazol-4-yl)pyrimidin-4-yl)amino)-5-(6,7-dihydro-5H-pyrrolo[1,2-a]imidazol-2-yl)pyridin-4-yl)amino)-1-methylcyclohexan-1-ol] | 0.3 | 0.2 | 0.6 | 0.3 | 3.4 | 0.5 | 0.3 | 0.5 | 3.8 | 4880 |
| C[C@]1(O)CC[C@@H](Nc2cc(Nc3ccnc(-c4cnn(CCF)c4)n3)ncc2-c2ccn(C(F)F)n2)CC1 [Example 145, (1s,4s)-4-((5-(1-(Difluoromethyl)-1H-pyrazol-3-yl)-2-((2-(1-(2-fluoroethyl)-1H-pyrazol-4-yl)pyrimidin-4-yl)amino)pyridin-4-yl)amino)-1-methylcyclohexan-1-ol] | 0.6 | 0.5 | 23 | 7.2 | 199 | – | – | – | – | – |

The next compounds have a lower IC50 (EGFR L858R/T790M/C797S; [2]) than those just listed; values first:

| IC50 (EGFR del19/T790M/C797S; [1]) [nM] | IC50 (EGFR L858R/T790M/C797S; [2]) [nM] | IC50 (EGFR del19/C797S; [3]) [nM] | IC50 (EGFR L858R/C797S; [4]) [nM] | IC50 (EGFR wildtype (WT); [5]) [nM] | IC50 (EGFR del19/T790M/C797S; [6]) [nM] | IC50 (EGFR L858R/T790M/C797S; [7]) [nM] | IC50 (EGFR del19/C797S; [8]) [nM] | IC50 (EGFR L858R/C797S; [9]) [nM] | IC50 (EGFR wildtype (WT); [10]) [nM] | SMILES |
| --- | --- | --- | --- | --- | --- | --- | --- | --- | --- | --- |
| 0.1 | 0.05 | 4.8 | 2 | 32 | – | – | – | – | – | Cc1cnn(-c2cnc(Nc3ccnc(-c4cnn(S(=O)(=O)C5CC5)c4)n3)cc2N[C@H]2CC[C@@](C)(O)CC2)c1 [Example 184, (1s,4s)-4-((2-((2-(1-(Cyclopropylsulfonyl)-1H-pyrazol-4-yl)pyrimidin-4-yl)amino)-5-(4-methyl-1H-pyrazol-1-yl)pyridin-4-yl)amino)-1-methylcyclohexan-1-ol] |
| 0.2 | 0.1 | 0.3 | 0.1 | 0.3 | – | – | – | – | – | CN1CCC(n2ccc(-c3cnc(Nc4ccnc(-c5cnn(S(=O)(=O)C6CC6)c5)n4)cc3N[C@H]3CC[C@@](C)(O)CC3)n2)CC1 [Example 287, (1s,4s)-4-((2-((2-(1-(Cyclopropylsulfonyl)-1H-pyrazol-4-yl)pyrimidin-4-yl)amino)-5-(1-(1-methylpiperidin-4-yl)-1H-pyrazol-3-yl)pyridin-4-yl)amino)-1-methylcyclohexan-1-ol] |
| – | 0.1 | 0.4 | 1.4 | 10 | 0.1 | 1.4 | 0.8 | 43.9 | > 10000 | Cn1ccc(-c2cnc(Nc3ccnc(-c4cnn(S(=O)(=O)C5CC5)c4)n3)cc2N[C@H]2CC[C@H](CO)CC2)n1 [Example 229, ((1r,4r)-4-((2-((2-(1-(Cyclopropylsulfonyl)-1H-pyrazol-4-yl)pyrimidin-4-yl)amino)-5-(1-methyl-1H-pyrazol-3-yl)pyridin-4-yl)amino)cyclohexyl)methanol] |
| 0.6 | 0.1 | 0.6 | 0.3 | 1.2 | 0.4 | 0.3 | 1 | 3.4 | 669 | CN(C)CCCn1ccc(-c2cnc(Nc3ccnc(-c4cnn(S(=O)(=O)C5CC5)c4)n3)cc2N[C@H]2CC[C@@H](C(C)(C)O)CC2)n1 [Example 278, 2-((1s,4s)-4-((2-((2-(1-(Cyclopropylsulfonyl)-1H-pyrazol-4-yl)pyrimidin-4-yl)amino)-5-(1-(3-(dimethylamino)propyl)-1H-pyrazol-3-yl)pyridin-4-yl)amino)cyclohexyl)propan-2-ol] |
| 0.2 | 0.1 | 0.2 | 0.2 | 1 | 0.2 | 0.2 | 0.2 | 0.8 | > 10000 | Cn1ccc(-c2cnc(Nc3ccnc(-c4cnn(S(=O)(=O)C5CC5)c4)n3)cc2N[C@H]2CC[C@]3(CCC(=O)N3)CC2)n1 [Example 44, (5s,8s)-8-((2-((2-(1-(Cyclopropylsulfonyl)-1H-pyrazol-4-yl)pyrimidin-4-yl)amino)-5-(1-methyl-1H-pyrazol-3-yl)pyridin-4-yl)amino)-1-azaspiro[4.5]decan-2-one] |
